This note sets out measurements from article PMC3930583 (PLoS Pathogens, 2014).

For assay [1], the target named is T1, GST-AvrBsT (Xanthomonas euvesicatoria, UniProt A0ABS8LK00). Format: biochemical.
In assay [2] the target is T1, GST-AvrBsT. The assay is classed as biochemical. This is another data set of the same source.

In the case of `CC(=O)SCCNC(=O)CCNC(=O)[C@H](O)C(C)(C)COP(=O)(O)OP(=O)(O)OC[C@H]1O[C@@H](n2cnc3c(N)ncnc32)[C@H](O)[C@@H]1OP(=O)(O)O` [14C-acetyl-coenzyme A], the “14C autoacetylation, SDS-PAGE autoradiography” value at GST-AvrBsT [1] was “Wild-type GST-AvrBsT activity resulted in auto-acetylation of the enzyme and trans-acetylation of GST-ACIP1”.
As for `O=P(O)(O)O[C@H]1[C@H](OP(=O)(O)O)[C@@H](OP(=O)(O)O)[C@H](OP(=O)(O)O)[C@@H](OP(=O)(O)O)[C@H]1OP(=O)(O)O` [inositol hexakisphosphate], the “14C autoacetylation with and without IP6, autoradiography” value at GST-AvrBsT [2] is given as “Auto-acetylation of GST-AvrBsT was detected in the presence of IP6 but not its absence”.
